Results taken from article PMC7251097, “Aspartate/asparagine-β-hydroxylase: a high-throughput mass spectrometric assay for discovery of small molecule inhibitors” (Scientific Reports, 2020).
Where a name gives a salt, the structure may show the parent alone. Read-outs that look alike come from different tables or passages of the source.

Target: T1, His6-AspH315–758 (human aspartate/asparagine-β-hydroxylase, AspH) (Homo sapiens, UniProt Q12797)
T1 construct: N-Terminally His6-tagged human AspH315–758 (His6-AspH315–758) was produced in E. coli BL21 (DE3) cells; made in house; host or cells: E. coli BL21 (DE3), pET-28a(+) vector
T1 sequence (Q12797 315-758): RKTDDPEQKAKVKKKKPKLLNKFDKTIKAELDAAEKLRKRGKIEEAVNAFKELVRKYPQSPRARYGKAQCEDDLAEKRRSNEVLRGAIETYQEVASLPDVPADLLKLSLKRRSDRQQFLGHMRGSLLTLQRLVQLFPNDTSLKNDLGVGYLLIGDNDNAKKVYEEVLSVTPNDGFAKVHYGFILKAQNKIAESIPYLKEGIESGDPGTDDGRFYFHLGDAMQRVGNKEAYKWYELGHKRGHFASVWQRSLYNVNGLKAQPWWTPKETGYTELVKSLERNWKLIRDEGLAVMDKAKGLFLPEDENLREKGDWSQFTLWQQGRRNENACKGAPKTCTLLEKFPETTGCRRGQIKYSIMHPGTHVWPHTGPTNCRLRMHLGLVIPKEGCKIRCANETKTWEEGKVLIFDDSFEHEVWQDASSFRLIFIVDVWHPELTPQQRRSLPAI
Assay: SPE-MS AspH inhibition assay (LOPAC screen at fixed 20 μM and IC50 dose-response), hydroxylation of cyclic peptide hFX-CP101–119
Assay type: biochemical
Conditions: for IC50: 50 nM His6-AspH315–758, 1.0 μM hFX-CP101–119, 3 μM 2OG, 2 μM Fe(II), 50 mM HEPES pH 7.5, 20 °C, mean ± SD, n = 2 (2,4-PDCA n = 10), read-out: IC50

[1] = LOPAC compound at fixed 20 uM, plate 1, normalised to DMSO and 2,4-PDCA controls
[2] = LOPAC compound at fixed 20 uM, substrate conversion, plate 1
[3] = LOPAC compound at 20uM, plate 3, conversion of substrate peptide
[4] = LOPAC Plate 4, compound at 20 uM, substrate conversion

CCOC(=O)C(C)(C)Oc1ccc(Cl)cc1 [Clofibrate]
Plate 1 (% inhibition) [1]: -11.71% | Plate 1 (% conversion) [2]: 39.80%

CC(=O)C(C)=NO [2,3-Butanedione monoxime]
Plate 1 (% inhibition) [1]: -3.18% | Plate 1 (% conversion) [2]: 36.94%

Cc1ncsc1CCCl.Cl [Chlormethiazole hydrochloride]
Plate 1 (% conversion): 33.94% | Plate 1 (% inhibition): 5.75%

CC(C)[C@H]1c2ccc(F)cc2CC[C@@]1(CCN(C)CCCc1nc2ccccc2[nH]1)OC(=O)C1CC1 [NNC 55-0396]
Plate 3 (% conversion) [3]: 58.37%

COc1ccccc1N1CCN(CCN(C(=O)C2CCCCC2)c2ccccn2)CC1.O=C(O)/C=C\C(=O)O [WAY-100635 maleate]
% conversion: 42.39% | % inhibition (20 µM): -17.34%

C[C@H](N)CN1CCc2ccc(Br)cc21.C[C@H](N)CN1CCc2ccc(Br)cc21.O=C(O)/C=C/C(=O)O [VER-3323 hemifumarate salt]
Plate 3 (% conversion): 21.58%

N=C(N)c1ccc(OCCCCCOc2ccc(C(=N)N)cc2)cc1 [Pentamidine isethionate]
Plate 3 (% conversion) [3]: 37.75%

CCc1ccc2c(-c3cccc(Cl)c3)nc(=O)n(CC)c2n1 [YM 976]
Plate 1 (% inhibition) [1]: -17.07% | Plate 1 (% conversion) [2]: 41.61%

Cc1ccc(=O)n(-c2ccccc2)c1 [Pirfenidone]
Plate 3 (% conversion) [3]: 40.30%

CN(C)CCOC(c1ccccc1)c1ccccc1 [Diphenhydramine hydrochloride]
inhibition at 20 µM (LOPAC compound at 20uM, plate 2, normalised to DMSO and 2,4-PDCA controls, read-out: Plate 2 (% inhibition)): -7.73%

CC(C(=O)O)c1ccc(CC2CCCC2=O)cc1 (centres unmarked) [loxoprofen]
Plate 3 (% conversion) [3]: 35.95%

Cc1cc(C2CCCCC2)n(O)c(=O)c1 [Ciclopirox olamine, reference compound]
IC50: 4.39 ± 0.71 µM

CCCCN(CC)c1nc(C)nc2c1c(C)cn2-c1c(C)cc(C)cc1C.Cl [CP-154526 hydrochloride]
Plate 3 (% conversion) [3]: 39.02%

CC[C@H](NC(=O)c1c(C)c(-c2ccccc2)nc2ccccc12)c1ccccc1 [SB 222200]
Plate 1 (% inhibition) [1]: -26.34% | Plate 1 (% conversion) [2]: 44.72%

Clc1ccc(C(c2ccc(Cl)cc2)n2cc[n+](CC(OCc3ccc(Cl)cc3Cl)c3ccc(Cl)cc3Cl)c2)cc1 (centres unmarked) [Calmidazolium chloride]
Plate 1 (% conversion): 58.50% | Plate 1 (% inhibition) [1]: -67.38%

Cc1nn(-c2ccccc2)c(C)c1/C=N/N1CCN(Cc2ccccc2)CC1 [SANT-1]
Plate 2 (% conversion) (LOPAC compound at 20uM, plate 2, conversion of substrate peptide): 42.39% | Plate 2 (% inhibition) (LOPAC compound at 20uM, plate 2, normalised to DMSO and 2,4-PDCA controls): -19.21%

O=C1c2c(O)cc(O)cc2O[C@H](c2ccc(O)c(O)c2)[C@H]1O (racemic) [(±)-Taxifolin, reference compound]
Inhibition at 20 µM [%] (AspH activity, fixed compound concentration 20 μM, initial LOPAC screen, 0.5%v/v DMSO): 97.5% | % conversion [4]: 3.21%

CCOC(=O)c1ccc(C#Cc2ccc3c(c2)C(C)(C)CCS3)nc1 [Tazarotene]
% conversion [4]: 39.09%

CC(N)=O [Acetamide]
Plate 1 (% inhibition) [1]: 0.92% | Plate 1 (% conversion) [2]: 35.56%

CN1CCC(c2c[nH]c3ccc(O)cc23)CC1.O=C(O)/C=C\C(=O)O [BRL 54443 maleate]
Plate 1 (% conversion): 33.54% | Plate 1 (% inhibition): 6.94%

Cc1cc(Nc2ncc3cc(-c4c(Cl)cccc4Cl)c(=O)n(C)c3n2)ccc1F [PD-180970]
Plate 1 (% inhibition) [1]: -5.67% | Plate 1 (% conversion) [2]: 37.77% | Plate 5 (% inhibition) (plate 5 (Pfitzer), test compounds at fixed 20 μM): 46.58% | Plate 5 (% conversion) (plate 5 (Pfitzer), test compounds at fixed 20 μM, mean conversion DMSO 32.88): 20.46%

Br.CN1Cc2sccc2C(c2ccc(O)c(O)c2)C1 (centres unmarked) [SKF-89145 hydrobromide]
Plate 1 (% inhibition) [1]: 78.75% | Plate 1 (% conversion) [2]: 9.43%

COc1ccc(/C=C2\COc3ccc(C)cc3C2=O)cc1O [IMS2186]
% conversion [4]: 32.74%

Clc1ccc(N/N=C(\c2ccccc2)c2ccccn2)nc1 [JIB-04, reference compound]
IC50: 4.24 ± 0.3 µM

O=C(O)CCCCCCCC(=O)O [Azelaic acid]
Plate 1 (% inhibition) [1]: 11.13% | Plate 1 (% conversion) [2]: 32.14%

NC(=O)N1c2ccccc2C=Cc2ccccc21 [Carbamazepine]
Plate 1 (% inhibition) [1]: 0.72% | Plate 1 (% conversion) [2]: 35.63%

O=C1CCc2cc(OCCCCc3nnnn3C3CCCCC3)ccc2N1 [Cilostazol]
Plate 1 (% inhibition) [1]: -4.97% | Plate 1 (% conversion) [2]: 37.54%

Nc1nc2ccc(OC(F)(F)F)cc2s1 [Riluzole]
% conversion [4]: 38.21% | inhibition at 20 µM (LOPAC Plate 4, compound at 20 uM, read-out: % inhibition): -5.09%
